Assay results: patent US20250197389A1, “NITROGEN-CONTAINING HETEROCYCLIC COMPOUND” (SHANGHAI SHIJIANG BIOTECHNOLOGY CO., LTD, priority 2022, published 2025)

Assays:
[1] = system: mPTP-inactive Daoy cell; assay: Inhibitory effect on mPTP-inactive Daoy cell (PPIF shRNA; Promega CellTiter-Glo, intracellular ATP); type: cell-based, human; conditions: Daoy cell transfected with virus vector carrying PPIF shRNA
Source text: The activity of mitochondria permeability transition pore (mPTP) was regulated by the PPIF protein. […] PPIF protein activity was restricted by the expression level of PPIF protein in cell.

[2] = system: mPTP-active Daoy cell; assay: Inhibitory effect on mPTP-active Daoy cell (Promega CellTiter-Glo, intracellular ATP); type: cell-based, human; conditions: Daoy cell transfected with empty virus vector without PPIF shRNA

| SMILES | IC50 ([1]; Homo sapiens, Daoy) [µM] | IC50 ([2]; Homo sapiens, Daoy) [µM] | IC50 [1] [µM] | IC50 [2] [µM] |
| --- | --- | --- | --- | --- |
| COc1ccc2c(c1OC)CN1CCc3cc4c(cc3C1=C2Cc1ccc(OC(F)(F)F)cc1)OCO4 [AB31866] | 3.38 | 6.78 | – | – |
| COc1ccc2c(c1OC)CN1CCc3cc4c(cc3C1=C2Cc1ccc(C(C)C)cc1)OCO4 [AB31870] | 1.86 | 3.94 | – | – |
| CCCCC1c2c(c(Br)cc(OC)c2OC)C=C2c3cc4c(cc3CCN21)OCO4 (stereo not shown) [AB31873] | 3.13 | 6.44 | – | – |
| COc1ccc2c(c1OCCCBr)CN1CCc3cc4c(cc3C1C2)OCO4 (stereo not shown) [AB31878] | 11 | 10.4 | – | – |
| CCCCCCC1c2c(ccc(OC)c2OC)C=C2c3cc4c(cc3CCN21)OCCO4 (stereo not shown) [AB31880] | 1.13 | 2.93 | – | – |
| COc1ccc2c(c1OCCCCOc1ccccc1)C(C)N1CCc3cc4c(cc3C1=C2)OCO4 (stereo not shown) [AB31881] | 2.12 | 4.34 | – | – |
| COc1ccc2c(c1OCCCBr)C(C)N1CCc3cc4c(cc3C1=C2)OCO4 (stereo not shown) [AB31887] | 3.17 | 6.47 | – | – |
| COc1ccc2c(c1OCCCCCCCl)C(C)N1CCc3cc4c(cc3C1=C2)OCO4 (stereo not shown) [AB31888] | 2.68 | 5.46 | – | – |
| COc1ccc2c(c1NCCc1ccccc1)C(C)N1CCc3cc4c(cc3C1=C2)OCO4 (stereo not shown) [AB31895] | 1.46 | 3.15 | – | – |
| COc1ccc2c(c1OC(=O)CC13CC4CC(CC(C4)C1)C3)C(C)N1CCc3cc4c(cc3C1=C2)OCO4 (stereo not shown) [AB31896] | 2.42 | 5.02 | – | – |
| COc1ccc2c(c1OCCCCCCBr)C(C)N1CCc3cc4c(cc3C1=C2)OCO4 (stereo not shown) [AB31897] | 1.58 | 3.43 | – | – |
| COc1ccc2c(c1OC)C(C)N1CCc3cc4c(cc3C1=C2)OCCO4 (stereo not shown) [AB31898] | 4.43 | 9.54 | – | – |
| COc1ccc2c(c1OC/C=C(\C)CCC=C(C)C)C(C)N1CCc3cc4c(cc3C1=C2)OCO4 (stereo not shown) [AB35402] | 0.81 | 1.72 | – | – |
| COc1ccc2c(c1OC/C=C(\C)CCC=C(C)C)C(C(Cl)(Cl)Cl)N1CCc3cc4c(cc3C1=C2)OCO4 (stereo not shown) [AB35405] | 1.21 | 2.68 | – | – |
| COc1ccc2c(c1OCCCCCCNC(=O)OC(C)(C)C)C(C(Cl)(Cl)Cl)N1CCc3cc4c(cc3C1=C2)OCO4 (stereo not shown) [AB35407] | 1.34 | 2.83 | – | – |
| COc1ccc2c(c1OC)C(C)N1CCc3cc4c(cc3C1=C2CCCc1ccccc1)OCO4 (stereo not shown) [AB35411] | – | – | 1.78 | 3.51 |
| CC1c2c(ccc3c2OCO3)C=C2c3cc4c(cc3CCN21)OCO4 (stereo not shown) [AB35413] | 6.87 | 13.3 | – | – |
| COc1ccc2c(c1OCCCCCCNC(=O)OC(C)(C)C)C(C)N1CCc3cc4c(cc3C1=C2)OCO4 (stereo not shown) [AB35415] | 2.26 | 4.79 | – | – |
| COc1ccc2c(c1OCCNC(=O)OC(C)(C)C)C(C(Cl)(Cl)Cl)N1CCc3cc4c(cc3C1=C2)OCO4 (stereo not shown) [AB35416] | 5.11 | 10.6 | – | – |
| COc1ccc2c(c1OC)C(C(Cl)(Cl)Cl)N1CCc3cc4c(cc3C1=C2CCCc1ccccc1)OCO4 (stereo not shown) [AB35417] | 1.61 | 3.62 | – | – |
| CCCCCC1=C2c3cc4c(cc3CCN2C(C(Cl)(Cl)Cl)c2c1ccc(OC)c2OC)OCO4 (stereo not shown) [AB35418] | 1.56 | 3.25 | – | – |
| COc1ccc2c(c1OCCN1CCCCC1)C(C(Cl)(Cl)Cl)N1CCc3cc4c(cc3C1=C2)OCO4 (stereo not shown) [AB35420] | 4.59 | 9.55 | – | – |

| SMILES | IC50 ([1]; Homo sapiens, Daoy) [µM] | IC50 ([2]; Homo sapiens, Daoy) [µM] | IC50 [1] [µM] | IC50 [2] [µM] |
| --- | --- | --- | --- | --- |
| ClC(Cl)(Cl)C1c2c(ccc3c2OCO3)C=C2c3cc4c(cc3CCN21)OCO4 (stereo not shown) [AB35421] | 24.9 | > 50 | – | – |
| CCCCCC1=C2c3cc4c(cc3CCN2C(C)c2c1ccc(OC)c2OC)OCO4 (stereo not shown) [AB35422] | 2.59 | 5.27 | – | – |
| COc1ccc2c(c1OCCCCNC(=O)OC(C)(C)C)C(C(Cl)(Cl)Cl)N1CCc3cc4c(cc3C1=C2)OCO4 (stereo not shown) [AB35423] | – | – | 2.36 | 4.82 |
| COc1ccc2c(c1OCCNC(=O)OC(C)(C)C)C(C)N1CCc3cc4c(cc3C1=C2)OCO4 (stereo not shown) [AB35424] | 6.18 | 13.8 | – | – |
| CCCCCCC1c2c(ccc3c2OCO3)C=C2c3cc4c(cc3CCN21)OCO4 (stereo not shown) [AB35426] | 1.03 | 2.71 | – | – |
| CC1c2c(ccc3c2OCO3)C(CCCc2ccccc2)=C2c3cc4c(cc3CCN21)OCO4 (stereo not shown) [AB35427] | 1.49 | 3.27 | – | – |
| ClC(Cl)(Cl)C1c2c(ccc3c2OCO3)C(CCCc2ccccc2)=C2c3cc4c(cc3CCN21)OCO4 (stereo not shown) [AB35428] | 5.61 | 12.9 | – | – |
| COc1ccc2c(c1OCCCCN)C(C)N1CCc3cc4c(cc3C1=C2)OCO4 (stereo not shown) [AB35429] | 2.23 | 5.28 | – | – |
| COc1ccc2c(c1OCCCBr)C(C1CCCC1)N1CCc3cc4c(cc3C1=C2)OCO4 (stereo not shown) [AB35430] | 2.38 | 5.07 | – | – |
| COc1ccc2c(c1OCCCCl)C(C1CCCC1)N1CCc3cc4c(cc3C1=C2)OCO4 (stereo not shown) [AB35434] | 2.48 | 5.21 | – | – |
| COc1ccc2c(c1OC)C(C1CCCC1)N1CCc3cc4c(cc3C1=C2CCCc1ccccc1)OCO4 (stereo not shown) [AB35436] | 2.28 | 4.8 | – | – |
| COc1ccc2c(c1OC/C=C(\C)CCC=C(C)C)C(C1CCCC1)N1CCc3cc4c(cc3C1=C2)OCO4 (stereo not shown) [AB35438] | 0.84 | 1.86 | – | – |
| COc1ccc2c(c1OCCCCCCCl)C(C1CCCC1)N1CCc3cc4c(cc3C1=C2)OCO4 (stereo not shown) [AB35440] | 1.14 | 2.36 | – | – |
| COc1ccc2c(c1OCCCCl)C(C(Cl)(Cl)Cl)N1CCc3cc4c(cc3C1=C2)OCO4 (stereo not shown) [AB35441] | 1.27 | 2.88 | – | – |
| COc1ccc2c(c1OCCCN1CCCCC1)C(C)N1CCc3cc4c(cc3C1=C2)OCO4 (stereo not shown) [AB35442] | 11.4 | 10.7 | – | – |
| COc1ccc2c(c1OCCN1CCCCC1)C(C)N1CCc3cc4c(cc3C1=C2)OCO4 (stereo not shown) [AB35443] | 31 | 30 | – | – |
| COc1ccc2c(c1OC)C(C(Cl)(Cl)Cl)N1CCc3cc4c(cc3C1=C2CCc1ccccc1)OCO4 (stereo not shown) [AB35444] | 3.33 | 6.85 | – | – |
| CCCCN1CCN(c2c(OC)ccc3c2C(C(Cl)(Cl)Cl)N2CCc4cc5c(cc4C2=C3)OCO5)CC1 (stereo not shown) [AB35445] | 6.37 | 12.1 | – | – |
| COc1ccc2c(c1OCCN(C)C)C(C(Cl)(Cl)Cl)N1CCc3cc4c(cc3C1=C2)OCO4 (stereo not shown) [AB35446] | 17.6 | 16.2 | – | – |
| COc1ccc2c(c1OC)C(C(Cl)(Cl)Cl)N1CCc3cc4c(cc3C1=C2Cc1ccccn1)OCO4 (stereo not shown) [AB35447] | 25.7 | 22.9 | – | – |
| COc1ccc2c(c1OC)C(C1CCCC1)N1CCc3cc4c(cc3C1=C2CCc1ccccc1)OCO4 (stereo not shown) [AB35448] | 1.72 | 3.53 | – | – |
| COc1ccc2c(c1N1CCC(C)CC1)C(C(Cl)(Cl)Cl)N1CCc3cc4c(cc3C1=C2)OCO4 (stereo not shown) [AB35453] | 0.43 | 1.23 | – | – |

| SMILES | IC50 ([1]; Homo sapiens, Daoy) [µM] | IC50 ([2]; Homo sapiens, Daoy) [µM] | IC50 [1] [µM] | IC50 [2] [µM] |
| --- | --- | --- | --- | --- |
| COc1ccc2c(c1OCCCCOc1ccccc1)C(C1CCCC1)N1CCc3cc4c(cc3C1=C2)OCO4 (stereo not shown) [AB35454] | 1.28 | 2.96 | – | – |
| COc1ccc2c(c1OCCCCCCNC(=O)OC(C)(C)C)C(C1CCCC1)N1CCc3cc4c(cc3C1=C2)OCO4 (stereo not shown) [AB35455] | 1.47 | 3.51 | – | – |
| COc1ccc2c(c1OCCCCl)C(C)N1CCc3cc4c(cc3C1=C2)OCO4 (stereo not shown) [AB35456] | 2.76 | 5.77 | – | – |
| COc1ccc2c(c1NCCc1ccccc1)C(C1CCCC1)N1CCc3cc4c(cc3C1=C2)OCO4 (stereo not shown) [AB35457] | 1.52 | 3.25 | – | – |
| COc1ccc2c(c1OCCCCCCBr)C(C1CCCC1)N1CCc3cc4c(cc3C1=C2)OCO4 (stereo not shown) [AB35458] | 1.84 | 3.85 | – | – |
| COc1ccc2c(c1OC(=O)CC13CC4CC(CC(C4)C1)C3)C(C1CCCC1)N1CCc3cc4c(cc3C1=C2)OCO4 (stereo not shown) [AB35459] | 6.18 | 12.5 | – | – |
| COc1ccc2c(c1OC)C(C1CCCC1)N1CCc3cc4c(cc3C1=C2Cc1ccc(C(C)C)cc1)OCO4 (stereo not shown) [AB35460] | 0.78 | 1.96 | – | – |
| COc1ccc2c(c1N1CCC(NC(=O)OC(C)(C)C)CC1)C(C(Cl)(Cl)Cl)N1CCc3cc4c(cc3C1=C2)OCO4 (stereo not shown) [AB35465] | 2.68 | 5.43 | – | – |
| COc1ccc2c(c1OCCCBr)C(C(Cl)(Cl)Cl)N1CCc3cc4c(cc3C1=C2)OCO4 (stereo not shown) [AB35466] | 0.91 | 2.21 | – | – |
| C1=C2c3cc4c(cc3CCN2C(C2CCCC2)c2cc3c(cc21)OCO3)OCO4 (stereo not shown) [AB35467] | 8.21 | 16.1 | – | – |
| COc1ccc2c(c1OC)C(C)N1CCc3cc4c(cc3C1=C2CCCCc1ccccc1)OCO4 (stereo not shown) [AB35468] | 1.05 | 2.29 | – | – |
| COc1ccc2c(c1OC)C(C(Cl)(Cl)Cl)N1CCc3cc4c(cc3C1=C2CCCCc1ccccc1)OCO4 (stereo not shown) [AB35469] | 1.11 | 2.41 | – | – |
| COc1ccc2c(c1OCCCCCCCl)C(C(Cl)(Cl)Cl)N1CCc3cc4c(cc3C1=C2)OCO4 (stereo not shown) [AB35475] | 1.23 | 2.64 | – | – |
| COc1ccc2c(c1OCCCCOc1ccccc1)C(C(Cl)(Cl)Cl)N1CCc3cc4c(cc3C1=C2)OCO4 (stereo not shown) [AB35476] | 1.08 | 2.35 | – | – |
| COc1ccc2c(c1OCCCF)C(C(Cl)(Cl)Cl)N1CCc3cc4c(cc3C1=C2)OCO4 (stereo not shown) [AB35478] | 1.51 | 3.78 | – | – |
| COc1ccc2c(c1OC)C(C(Cl)(Cl)Cl)N1CCc3cc4c(cc3C1=C2CCCc1ccccc1)OCCO4 (stereo not shown) [AB35484] | 0.97 | 3.06 | – | – |
| COc1ccc2c(c1OCCCF)C(C)N1CCc3cc4c(cc3C1=C2)OCO4 (stereo not shown) [AB35485] | 5.27 | 16.3 | – | – |
| COc1ccc2c(c1NCCc1ccccc1)C(C(Cl)(Cl)Cl)N1CCc3cc4c(cc3C1=C2)OCO4 (stereo not shown) [AB35486] | 0.23 | 0.71 | – | – |
| CCCCCCOc1c(OC)ccc2c1C(C(Cl)(Cl)Cl)N1CCc3cc4c(cc3C1=C2)OCO4 (stereo not shown) [AB35487] | 0.47 | 1.77 | – | – |
| CCC1=C2c3cc4c(cc3CCN2C(C(Cl)(Cl)Cl)c2c1ccc(OC)c2OC)OCO4 (stereo not shown) [AB35488] | 2.02 | 5.27 | – | – |
| CCCCCCC1=C2c3cc4c(cc3CCN2C(C2CCCC2)c2c1ccc(OC)c2OC)OCO4 (stereo not shown) [AB35489] | 0.79 | 1.68 | – | – |
